In patent publication US20240390296A1, “R-KETAMINE AND DERIVATIVE THEREOF AS PROPHYLACTIC OR THERAPEUTIC AGENT FOR NEURODE[…] OR R[…]” (National University Corporation Chiba University, priority 2017, published 2024):

Columns and labels:
MPTP-treated mice = assay: MPTP mouse model of Parkinson's disease, DAT immunohistochemistry in the striatum; assay type: in vivo
Source text: A Parkinson's disease model animal (Jackson-Lewis V. et al. Protocol for the MPTP mouse model of Parkinson's disease. Nat Protoc. 2007; 2 (1): 141-51.), which is a representative Parkinson's disease animal model and has been used by a number of research groups so far, was used to study the therapeutic effect of R-ketamine and S-ketamine on the loss of the dopamine nervous system in the brain of the model animal.
The creation of the Parkinson's disease model animal and the administration of the drug were specifically carried out as described below (FIG. 1). As the mouse, a male C57BL/6N mouse (12 weeks of age, SLC Japan Co., Ltd., Hamamatsu, Japan) was purchased. Mice had free access to water and food. For the experiment, those above 14 weeks of age were used. On the first day of the experiment, physiological saline (5 mL/kg body weight) or MPTP (10 mg/kg body weight) was intraperitoneally administered three times at two hours intervals. Three hours after the final administration, R-ketamine (10 mg/kg body weight) or S-ketamine (10 mg/kg body weight), or a vehicle (physiological saline 0.5 mL/kg) was intranasally administered. Similarly, from the second day to the seventh day of the experiment, R-ketamine (10 mg/kg body weight) or S-ketamine (10 mg/kg body weight), or the vehicle (physiological saline 0.5 mL/kg) was intranasally administered. (A) is a group administered with physiological saline+physiological saline, (B) is a group administered with MPTP+physiological saline, (C) is a group administered with MPTP+R-ketamine, and (D) is a group administered with MPTP+S-ketamine. On the eighth day of the experiment, mice were perfused and fixed, and immunohistochemistry of dopamine transporter (DAT) was carried out. The immunohistochemistry of DAT was photographed with a microscope equipped with a CCD camera (Olympus IX70, Tokyo, Japan), and the shading was analyzed using SCION IMAGE software. Representative immunohistochemical photographs were taken with a Keyence microscope (BZ-9000, Osaka, Japan).
Statistical analysis was carried out by one-way analysis of variance (one-way ANOVA) followed by Tukey's test (Tukey HSD test). Data are expressed as mean±standard error (n=7 to 8 mouse/group). * p<0.05, ** p<0.01, and *** p<0.001 show significant differences compared to the (B) group of mice treated with MPTP+physiological saline.
The test was carried out in the same manner as in the test in FIG. 1 except that R-ketamine (10 mg/kg body weight) or the vehicle (physiological saline 0.5 mL/kg) was intranasally administered once (FIG. 4). There were a group administered with physiological saline+physiological saline, a group administered with MPTP+physiological saline, and a group administered with MPTP+R-ketamine.
The test was carried out in the same manner as in the test in FIG. 1 except that R-norketamine (10 mg/kg body weight) or S-norketamine (10 mg/kg body weight) was administered (FIG. 6). There were a group administered with physiological saline+physiological saline, a group administered with MPTP+physiological saline, a group administered with MPTP+R-norketamine, and a group administered with MPTP+S-norketamine.
The test was carried out in the same manner as in the test in FIG. 1 except that ANA-12 (0.5 mg/kg), an antagonist of the TrkB receptor for brain-derived neurotrophic factor (BDNF: Brain-derived Neurotrophic Factor), was administered before the administration of R-ketamine. (FIG. 8). It should be noted that in FIG. 8, ANA-12 is described as ANA. There was a group administered with physiological saline+physiological saline, a group administered with MPTP+physiological saline, a group administered with MPTP+R-ketamine, a group administered with MPTP+R-ketamine+ANA-12, and a group administered with MPTP+ANA-12.

β-amyloid-treated mice = assay: Alzheimer's disease model (intracerebroventricular β-amyloid), novel object recognition test (NORT); assay type: in vivo, mouse; conditions: 10 mg/kg intraperitoneal once a day, day 2 to day 10; test session day 15; male ICR mice
Source text: Using an animal model of Alzheimer's disease (intracerebroventricular administration of β-amyloid), which has been used by a number of research groups so far, the therapeutic effect of R-ketamine and S-ketamine on the cognitive dysfunction was studied.
The creation of the Alzheimer's disease model animal and the administration of the drug were specifically carried out as described below (FIG. 10). As the mouse, a male ICR mouse (five weeks of age, SLC Japan Co., Ltd., Hamamatsu, Japan) was purchased. Mice had free access to water and food. First, β-amyloid (BACHEM, Cat. #: H-1192.0005) was incubated at 37° C. for four days to let aggregate. On the first day of the experiment, mice were anesthetized with isoflurane and pentobarbital, and placed on a mouse brain fixation apparatus. Distilled water (6 μL) or β-amyloid (6 μg) was administered intracerebroventricularly. […] On the 14th day of the experiment, two objects having different shapes and colors were placed on the NORT apparatus at a distance of 35.5 cm, and the time for searching for each object was measured. […] The time to search for two objects was measured, and the ratio of the time to search for a new object to the time to search for the two objects in the test session on the second day was calculated. […]

NMDA receptor = conditions: non-patent literature 4; cited from earlier work
α-synuclein-treated mice = assay: Lewy body dementia model (intracerebroventricular α-synuclein), novel object recognition test (NORT); assay type: in vivo, mouse; conditions: 10 mg/kg intraperitoneal once a day, day 2 to day 10; test session day 15; male ICR mice
Source text: The therapeutic effects of R-ketamine and S-ketamine on cognitive dysfunction were studied using animal models of Lewy body dementia and diseases caused by α-synuclein aggregation (intracerebroventricular administration of α-synuclein), which have been used by a number of research groups so far.
The creation of the Lewy body dementia model animal and the administration of the drugs were specifically carried out as described below (FIG. 12). As the mouse, a male ICR mouse (five weeks of age, SLC Japan Co., Ltd., Hamamatsu, Japan) was purchased. Mice had free access to water and food. First, α-synuclein (StressMarq @ Bioscience, Cat #: SPR-322) was incubated at 37° C. for four days to let aggregate. On the first day of the experiment, mice were anesthetized with isoflurane and pentobarbital, and placed on a mouse brain fixation apparatus. Physiological saline (6 μL) or α-synuclein (6 μg) was administered intracerebroventricularly. […]
Statistical analysis was carried out by one-way analysis of variance (one-way ANOVA) followed by the Fisher's least significant difference test (Fisher's Least Significant Difference test). Data are expressed as mean±standard error (n=4 mouse/group). * p<0.05 and ** p<0.01 show significant differences compared to the group of mice treated with α-synuclein+physiological saline.

[1] = animal experiments, non-patent literature 5; cited from earlier work
[2] = tested on: animal model of Parkinson's disease; conditions: 50 mg/kg (anesthetic dose), cited from earlier work
[3] = 10 mg/kg intranasal, day 1 (3 h after last MPTP) to day 7, DAT on day 8, male C57BL/6N mice

Q: Which “MPTP-induced decrease in DAT density in the striatum” value (MPTP-treated mice; [3]) does the source give for `N[C@]1(c2ccccc2Cl)CCCCC1=O` [S-norketamine] here?
A: did not suppress MPTP-induced decrease in DAT density

Q: Which “MPTP-induced decrease in DAT density in the striatum” value (MPTP-treated mice; [3]) does the source give for `CN[C@]1(c2ccccc2Cl)CCCCC1=O` [S-ketamine] here?
A: did not improve the decrease in DAT density

Q: And the “decrease in cognitive function caused by β-amyloid administration (NORT)” value (β-amyloid-treated mice)?
A: did not improve the decrease in cognitive function

Q: What about the “affinity for the NMDA receptor relative to R-ketamine” value (NMDA receptor) of the same compound?
A: about four times higher than R-ketamine

Q: For `CN[C@@]1(c2ccccc2Cl)CCCCC1=O` [R-ketamine], which “MPTP-induced decrease in DAT density in the striatum” value (MPTP-treated mice; [3]) is on record?
A: significantly improved the decrease in DAT density

Q: And the “MPTP-induced decrease in DAT density in the striatum” value (MPTP-treated mice; 10 mg/kg intranasal, single administration)?
A: suppressed MPTP-induced decrease in DAT density

Q: And the “MPTP-induced decrease in DAT density in the striatum” value (MPTP-treated mice; R-ketamine 10 mg/kg intranasal with ANA-12 (0.5 mg/kg) administered before)?
A: No effect of R-ketamine was observed

Q: And the “decrease in cognitive function caused by β-amyloid administration (NORT)” value (β-amyloid-treated mice)?
A: significantly improved the decrease in cognitive function

Q: What about the “decrease in cognitive function caused by α-synuclein administration (NORT)” value (α-synuclein-treated mice) of the same compound?
A: significantly improved the decrease in cognitive function

Q: What about the “side effects (psychotic disorder triggering effect, drug dependency, and the like) compared with S-ketamine” value [1] of the same compound?
A: fewer side effects

Q: With `CNC1(c2ccccc2Cl)CCCCC1=O` (racemic) [RS-ketamine] as the compound, how does the “neuroprotective effect in an animal model of Parkinson's disease” value ([2]; non-patent literature 2) read?
A: has a neuroprotective effect

Q: And the “side effects such as an acute activity increase effect” value [2]?
A: notably observed

Q: With `O=C(Nc1ccccc1C(=O)NC1CCCCNC1=O)c1cc2ccccc2s1` (centres unmarked) [ANA-12] as the compound, how does the “MPTP-induced decrease in DAT density” value (MPTP-treated mice; ANA-12 alone, 0.5 mg/kg) read?
A: did not affect MPTP-induced decrease in DAT density

Q: With `N[C@@]1(c2ccccc2Cl)CCCCC1=O` [R-norketamine] as the compound, how does the “MPTP-induced decrease in DAT density in the striatum” value (MPTP-treated mice; [3]) read?
A: did not suppress MPTP-induced decrease in DAT density
